Drawing on ChEMBL document CHEMBL5375948, “Development and Pharmacochemical Characterization Discover a Novel Brain-Permeable HDAC11-Selective Inhibitor with Therapeutic Potential by Regulating Neuroinflammation in Mice” (J Med Chem, 2023), this text covers IC50 for one molecule.

A word on the IC50: it is the point on the concentration scale where inhibition reaches its midpoint.

In this experiment the target is T1, Protein deacetylase HDAC6 (Homo sapiens, UniProt Q9UBN7).
T1 sequence (Q9UBN7 whole entry): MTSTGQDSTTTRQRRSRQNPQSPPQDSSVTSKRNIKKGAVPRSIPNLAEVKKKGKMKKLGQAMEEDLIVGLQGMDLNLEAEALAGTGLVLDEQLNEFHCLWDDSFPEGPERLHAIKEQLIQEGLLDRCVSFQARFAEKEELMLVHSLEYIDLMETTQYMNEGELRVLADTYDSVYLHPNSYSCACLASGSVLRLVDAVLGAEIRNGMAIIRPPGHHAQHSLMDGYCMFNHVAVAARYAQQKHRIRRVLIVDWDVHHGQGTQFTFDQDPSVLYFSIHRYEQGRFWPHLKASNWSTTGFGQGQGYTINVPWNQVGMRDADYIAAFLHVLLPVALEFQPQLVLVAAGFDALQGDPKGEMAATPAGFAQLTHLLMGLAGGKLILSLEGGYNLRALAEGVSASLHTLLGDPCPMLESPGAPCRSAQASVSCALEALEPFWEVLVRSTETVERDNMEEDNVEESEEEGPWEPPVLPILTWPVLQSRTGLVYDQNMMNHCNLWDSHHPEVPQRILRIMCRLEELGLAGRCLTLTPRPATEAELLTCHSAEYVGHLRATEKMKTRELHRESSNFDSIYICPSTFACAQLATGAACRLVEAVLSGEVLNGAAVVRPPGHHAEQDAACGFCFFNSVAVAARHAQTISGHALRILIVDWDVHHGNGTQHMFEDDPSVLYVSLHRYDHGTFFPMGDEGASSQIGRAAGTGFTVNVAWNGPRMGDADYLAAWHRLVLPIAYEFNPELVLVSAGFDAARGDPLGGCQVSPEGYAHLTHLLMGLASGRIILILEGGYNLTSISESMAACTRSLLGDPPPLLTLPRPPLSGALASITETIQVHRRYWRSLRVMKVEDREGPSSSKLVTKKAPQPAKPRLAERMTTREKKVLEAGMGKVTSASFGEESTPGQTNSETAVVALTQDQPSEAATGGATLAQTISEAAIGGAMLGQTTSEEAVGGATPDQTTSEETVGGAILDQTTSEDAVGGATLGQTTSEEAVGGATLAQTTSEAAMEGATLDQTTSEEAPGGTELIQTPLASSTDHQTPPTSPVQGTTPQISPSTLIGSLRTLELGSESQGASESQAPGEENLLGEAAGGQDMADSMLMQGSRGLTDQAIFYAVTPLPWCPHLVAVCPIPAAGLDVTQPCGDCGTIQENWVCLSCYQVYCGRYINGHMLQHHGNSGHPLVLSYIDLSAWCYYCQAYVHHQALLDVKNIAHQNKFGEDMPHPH
The experiment can be described thus: Inhibition of recombinant full-length human HDAC6 using FAM-RHKK(Ac)-NH2 as substrate by electrophoretic mobility shift assay. On the technique in general: Mobility shift assays separate free from complexed probe on a gel.

As for `O=C(NCC12C[C@H]3C[C@@H](C1)C[C@@H](C2)C3)c1ccc2c(ccn2Cc2ccc(C(=O)NO)c(Cl)c2)c1`, the IC50 was 220 nM.
